Source: patent US20250313547A1, “CEREBLON LIGANDS AND BIFUNCTIONAL COMPOUNDS COMPRISING THE SAME” (Arvinas Operations, Inc., priority 2017, published 2025)

Tests used:
tau protein = test: Tau protein in vitro degradation assay in SK-N-SH cells (Western blot); format: cell-based, human; details: % degraded, 72-hour incubation
Procedure: 10. Tau Protein In Vitro Degradation Assay
To determine effect of PROTACs on tau protein degradation SK-N-SH cells were seeded in a 24-well tissue culture-treated plate for at least 18-hours prior to compound addition. Tau PROTACs were evaluated for tau degradation by lysing the cells in RIPA buffer with protease inhibitors following a 72-hour incubation with tau PROTACs. Cell lysates were run on standard SDS-PAGE gels, and tau levels were detected by Western blotting using Tau-13 antibody from Abcam (Cambridge, UK) that binds to all forms of human tau.

c-myc = test: BRD4 human c-Myc ELISA assay in 22RV-1 cells; format: cell-based; details: 18 hours
Procedure: 6. BRD4 Human c-Myc ELISA Assay Protocol
22RV-1 cells were seeded at 30,000 cells/well at a volume of 75 µL/well in RPMI with 10% FBS media in 96-well plates and grown overnight at 37° C. Cells were dosed with compounds at 4× concentration diluted in 0.4% DMSO; compounds were serially diluted 1:3 for 8-point dose curve. Twenty-five (25) ul of the compounds was added to cells for a final concentration starting at 300 nM-0.3 nM or 1 uM-1 nM in 0.1% DMSO and incubated for 18 hours. Media was aspirated, cells were washed 1×with PBS and aspirated. Cells were lysed in 50 ul RIPA buffer (50 mM Tris pH8, 150 mM NaCl, 1% Tx-100, 0.1% SDS, 0.5% sodium deoxycholate) supplemented with protease and phosphatase inhibitors. Plates were incubated on ice for 15 minutes then centrifuged at 4° C. for 10 minutes at 4000 rpm. Fifty (50) ul of cleared lysate from a 96-well assay plate was added into 96-well c-myc ELISA plate (Novex, Life Technologies Catalog #KH02041). c-myc standard was reconstituted with standard diluent buffer; standard curve range of 333 pg/ml-0 pg/ml was prepared, diluted 1:2 for 8-point dose curve. The rest of the assay was performed following the protocol from the c-myc ELISA kit. Data was analyzed and plotted using GraphPad Prism software.

[1] = molecular target: Estrogen receptor-alpha (ERα) (Homo sapiens (Human), UniProt P03372); test: ERα degradation assay in T47D cells; format: cell-based; details: 5 day incubation, read-out: ER degradation DC50
Chain of Estrogen receptor-alpha (ERα) (P03372 whole entry): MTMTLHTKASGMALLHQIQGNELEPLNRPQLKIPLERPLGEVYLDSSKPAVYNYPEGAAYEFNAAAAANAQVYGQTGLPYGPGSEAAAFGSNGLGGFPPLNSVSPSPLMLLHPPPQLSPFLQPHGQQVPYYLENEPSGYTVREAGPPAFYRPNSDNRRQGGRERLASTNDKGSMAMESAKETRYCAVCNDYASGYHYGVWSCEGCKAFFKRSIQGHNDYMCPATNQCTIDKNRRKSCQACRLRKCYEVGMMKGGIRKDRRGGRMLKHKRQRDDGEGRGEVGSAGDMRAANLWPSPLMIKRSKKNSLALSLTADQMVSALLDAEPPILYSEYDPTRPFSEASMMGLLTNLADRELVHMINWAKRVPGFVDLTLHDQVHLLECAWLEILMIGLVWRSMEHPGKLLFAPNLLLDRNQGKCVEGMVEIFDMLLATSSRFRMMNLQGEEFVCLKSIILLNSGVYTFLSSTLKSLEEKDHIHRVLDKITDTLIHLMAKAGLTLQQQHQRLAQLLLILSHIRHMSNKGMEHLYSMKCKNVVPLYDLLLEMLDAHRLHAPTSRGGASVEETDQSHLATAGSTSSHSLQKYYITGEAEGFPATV

| DC50 [1] [µM] | Structure (SMILES) | also measured |
| --- | --- | --- |
|  | Cn1c2ccncc2c2ccc(-c3ccc(OCCOCCOCCOCCOCCN4CCC5(CC4)CC(=O)N(C4CCC(=O)NC4=O)C5=O)nc3)cc21 (stereo not shown) [PROTAC-112, 2-(2,6-dioxopiperidin-3-yl)-8-(14-((5-(5-methyl-5H-pyrido[4,3-b]indol-7-yl)pyridin-2-yl)oxy)-3,6,9,12-tetraoxatetradecyl)-2,8-diazaspiro[4.5]decane-1,3-dione] | Tau degradation % DMax (tau protein): C (C <= 50) |
|  | Cc1sc2c(c1C)C(c1ccc(Cl)cc1)=NC(CC(=O)NCCCOCCCOc1ccc3ncc(-n4ccc(=O)[nH]c4=O)cc3c1)c1nnc(C)n1-2 (stereo not shown) [PROTAC-1, 2-(4-(4-chlorophenyl)-2,3,9-trimethyl-6H-thieno[3,2-f][1,2,4]triazolo[4,3-a][1,4]diazepin-6-yl)-N-(3-(3-((3-(2,4-dioxo-3,4-dihydropyrimidin-1(2H)-yl)quinolin-6-yl)oxy)propoxy)propyl)acetamide] | IMax Myc (c-myc): 40C (C <= 50) |
| ≥ 0.1 | O=C1CCC(N2CC(Oc3cccc(C4CCN(CCCOc5ccc([C@H]6c7ccc(O)cc7CC[C@H]6c6ccccc6)cc5)CC4)c3)=CC2=O)C(=O)N1 (mixture of isomers) [PROTAC-105, rac-3-(4-(3-(1-(3-(4-((1R,2S)-6-hydroxy-2-phenyl-1,2,3,4-tetrahydronaphthalen-1-yl)phenoxy)propyl)piperidin-4-yl)phenoxy)-2-oxo-2,5-dihydro-1H-pyrrol-1-yl)piperidine-2,6-dione] |  |
| ≥ 0.1 | CCN(C(=O)c1ccc(N2CCN(CCCCCOc3ccc([C@@H]4c5ccc(O)cc5CC[C@@H]4c4ccccc4)cc3)CC2)cc1OC)C1CCC(=O)NC1=O (mixture of isomers) [PROTAC-92, rac-N-(2,6-dioxopiperidin-3-yl)-N-ethyl-4-(4-(5-(4-((1R,2S)-6-hydroxy-2-phenyl-1,2,3,4-tetrahydronaphthalen-1-yl)phenoxy)pentyl)piperazin-1-yl)-2-methoxybenzamide] |  |
